Patent publication US12570655B2, “Cysteine covalent modifiers of AKT1 and uses thereof” (Terremoto Biosciences, Inc., priority 2023, dated 2026)
pIC50: −log10 of the molar value. Like-named read-outs stand apart in the source and are kept apart here.

Legend:
Assay type in all cases: cell-based
AKT1 E17K = target: T1, AKT1 E17K (Homo sapiens, UniProt P31749, E17K); experiment: Live cell AKT1 E17K target engagement by NanoBRET competitive probe displacement; conditions: HEK293 cells transfected with kinase-NanoLuciferase fusion, 2 h at 37° C.
T1 construct: expressed in transfected cells; host or cells: HEK293
T1 sequence (P31749 whole entry E17K, the tested form may be a part): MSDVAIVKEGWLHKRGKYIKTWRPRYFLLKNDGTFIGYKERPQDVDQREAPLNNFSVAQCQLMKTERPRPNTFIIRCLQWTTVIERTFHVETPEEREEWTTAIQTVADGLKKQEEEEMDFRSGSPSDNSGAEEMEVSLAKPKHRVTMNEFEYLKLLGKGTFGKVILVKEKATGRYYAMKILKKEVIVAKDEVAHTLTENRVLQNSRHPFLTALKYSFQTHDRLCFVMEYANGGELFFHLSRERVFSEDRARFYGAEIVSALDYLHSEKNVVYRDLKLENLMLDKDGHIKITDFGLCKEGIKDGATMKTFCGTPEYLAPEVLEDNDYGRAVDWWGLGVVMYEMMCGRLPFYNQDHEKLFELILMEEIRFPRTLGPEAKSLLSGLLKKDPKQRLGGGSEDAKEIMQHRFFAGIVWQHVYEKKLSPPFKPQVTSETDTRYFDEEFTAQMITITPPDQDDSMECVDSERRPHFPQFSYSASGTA
Method in brief: (§1)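 HEK293 cells transiently expressing kinase–NanoLuc fusions overnight; treated with serial compound dilutions plus fluorescent ATP-competitive tracer at ~EC50, 2 h at 37 °C. BRET ratio E600/E460 read after substrate and extracellular luciferase inhibitor; IC50 from log(inhibitor) vs response Hill fit.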

AKT2 = target: T2, AKT2 (Homo sapiens, UniProt P31751); experiment: Live cell AKT2 target engagement by NanoBRET competitive probe displacement; conditions: HEK293 cells transfected with kinase-NanoLuciferase fusion, 2 h at 37° C.
T2 construct: expressed in transfected cells; host or cells: HEK293
T2 sequence (P31751 whole entry, the tested form may be a part): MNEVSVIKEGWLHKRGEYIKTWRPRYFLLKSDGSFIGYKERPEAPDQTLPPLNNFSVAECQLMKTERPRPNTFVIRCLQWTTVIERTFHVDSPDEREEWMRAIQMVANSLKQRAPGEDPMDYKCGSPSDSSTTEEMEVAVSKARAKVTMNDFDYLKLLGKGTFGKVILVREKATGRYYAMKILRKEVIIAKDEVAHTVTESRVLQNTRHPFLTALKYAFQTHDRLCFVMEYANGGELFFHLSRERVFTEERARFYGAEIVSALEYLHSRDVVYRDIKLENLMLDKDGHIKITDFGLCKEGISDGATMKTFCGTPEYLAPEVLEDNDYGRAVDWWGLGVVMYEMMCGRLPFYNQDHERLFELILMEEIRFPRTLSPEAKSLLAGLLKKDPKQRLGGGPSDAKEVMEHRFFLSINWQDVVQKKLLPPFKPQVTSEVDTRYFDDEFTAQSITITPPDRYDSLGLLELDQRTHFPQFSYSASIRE
Method in brief: as §1

AKT1 WT = target: T3, AKT1 WT (Homo sapiens, UniProt P31749); experiment: Live cell AKT1 WT target engagement by NanoBRET competitive probe displacement; conditions: HEK293 cells transfected with kinase-NanoLuciferase fusion, 2 h at 37° C.
T3 construct: expressed in transfected cells; host or cells: HEK293
T3 sequence (P31749 whole entry, the tested form may be a part): as the sequence (P31749 whole entry E17K, the tested form may be a part) above, with K17E counted along it
Method in brief: as §1

[1] = system: LAPC4 prostate cancer cells; experiment: Antiproliferative effects in LAPC4 cells (CellTiter Glo); conditions: LAPC4 cells (AKT1 E17K allele), read-out: LAPC4 proliferation IC50
Method in brief: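 LAPC4 prostate cancer cells carrying AKT1 E17K, grown in IMDM with 12% FBS, were seeded at 1,000 cells/well and exposed to compound dilutions for 72 h. Viability was read as intracellular ATP by CellTiter Glo luminescence, and IC50 was fitted with a log(inhibitor) vs. response Hill equation.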

SMILES | pIC50 (AKT1 E17K) | pIC50 (AKT2) | pIC50 (AKT1 WT) | pIC50 ([1]; 72 h) | pIC50 ([1]; Homo sapiens, LAPC4, 72 h)
C=CC(=O)N1C[C@H]2C[C@@H](C1)C2N[C@H]1CCc2cc(-n3c(-c4cccnc4N)nc4ccc(-n5cccn5)nc43)ccc21 (single isomer, unassigned) [Example 59, 1-((1R,5S,6*)-6-(((S)-5-(2-(2-aminopyridin-3-yl)-5-(1H-pyrazol-1-yl)-3H-imidazo[4,5-b]pyridin-3-yl)-2,3-dihydro-1H-inden-1-yl)amino)-3-azabicyclo[3.1.1]heptan-3-yl)prop-2-en-1-one] | 6.62 | 6.19 | 7.35 | 6.42 | 
C=CC(=O)N1CC2CC[C@@H]1CC2N[C@H]1CCc2cc(-n3c(-c4cccnc4N)nc4ccc(-n5cccn5)nc43)ccc21 (single isomer, unassigned) [Example 131, 1-[(1R,4R,5*)-5-{[(1S)-5-[2-(2-aminopyridin-3-yl)-5-(pyrazol-1-yl)imidazo[4,5-b]pyridin-3-yl]-2,3-dihydro-1H-inden-1-yl]amino}-2-azabicyclo[2.2.2]octan-2-yl]prop-2-en-1-one] | < 6.00 | 5.02 | < 6.00 |  | 5.74
C=CC(=O)N1CCC(N[C@@H]2c3ccc(-n4c(-c5cccnc5N)nc5ccc(-n6cccn6)nc54)cc3CC2F)C[C@H]1C (single isomer, unassigned) [Example 146, 1-((2R,4*)-4-(((1R,2*)-5-(2-(2-aminopyridin-3-yl)-5-(1H-pyrazol-1-yl)-3H-imidazo[4,5-b]pyridin-3-yl)-2-fluoro-2,3-dihydro-1H-inden-1-yl)amino)-2-methylpiperidin-1-yl)prop-2-en-1-one] | 7.11 | 5.80 | 7.64 | 6.35 | 
C=CC(=O)N1CCC(N[C@H]2CCc3cc(-n4c(-c5cccnc5N)nc5ccc(-n6cccn6)nc54)ccc32)CC12CCC2 (single isomer, unassigned) [Example 93, 1-((*)-8-(((S)-5-(2-(2-aminopyridin-3-yl)-5-(1H-pyrazol-1-yl)-3H-imidazo[4,5-b]pyridin-3-yl)-2,3-dihydro-1H-inden-1-yl)amino)-5-azaspiro[3.5]nonan-5-yl)prop-2-en-1-one] | 8.21 | 7.94 | 8.25 | 8.30 | 
C=CC(=O)N1[C@H](C)CC(N[C@H]2CCc3cc(-n4c(-c5cccnc5N)nc5ccc(-n6cccn6)nc54)ccc32)C[C@@H]1C (single isomer, unassigned) [Example 87, 1-((2S,4*,6R)-4-(((R)-5-(2-(2-aminopyridin-3-yl)-5-(1H-pyrazol-1-yl)-3H-imidazo[4,5-b]pyridin-3-yl)-2,3-dihydro-1H-inden-1-yl)amino)-2,6-dimethylpiperidin-1-yl)prop-2-en-1-one] | 6.78 | 6.24 | 7.59 | 6.44 | 
CC#CC(=O)Nc1cccc(C(=O)N[C@H]2CCc3cc(-n4c(-c5cccnc5N)nc5ccc(-n6cccn6)nc54)ccc32)c1 [Example 12, (S)-N-(5-(2-(2-aminopyridin-3-yl)-5-(1H-pyrazol-1-yl)-3H-imidazo[4,5-b]pyridin-3-yl)-2,3-dihydro-1H-inden-1-yl)-3-(but-2-ynamido)benzamide] | 7.89 | 6.89 | 7.95 |  | 6.46
C=CC(=O)N(C)CC(=O)N[C@H]1CCc2cc(-n3c(-c4cccnc4N)nc4ccc(-n5cccn5)nc43)ccc21 [Example 52, (S)-N-(2-((5-(2-(2-aminopyridin-3-yl)-5-(1H-pyrazol-1-yl)-3H-imidazo[4,5-b]pyridin-3-yl)-2,3-dihydro-1H-inden-1-yl)amino)-2-oxoethyl)-N-methylacrylamide] | 6.02 | 5.46 | 6.76 |  | 6.04
C=CC(=O)N1C[C@H]2C[C@@H]1CC2N[C@H]1CCc2cc(-n3c(-c4cccnc4N)nc4ccc(-n5cccn5)nc43)ccc21 (single isomer, unassigned) [Example 138, 1-[(1R,4R,5*)-5-{[(1S)-5-[2-(2-aminopyridin-3-yl)-5-(pyrazol-1-yl)imidazo[4,5-b]pyridin-3-yl]-2,3-dihydro-1H-inden-1-yl]amino}-2-azabicyclo[2.2.1]heptan-2-yl]prop-2-en-1-one] | 6.13 | 5.74 | 6.54 | 6.02 | 
C=CC(=O)N1CCc2cccc(C(=O)N[C@H]3CCc4cc(-n5c(-c6cccnc6N)nc6ccc(-n7cccn7)nc65)ccc43)c21 [Example 10, N-[(1S)-5-[2-(2-aminopyridin-3-yl)-5-(pyrazol-1-yl)imidazo[4,5-b]pyridin-3-yl]-2,3-dihydro-1H-inden-1-yl]1-(prop-2-enoyl)-2,3-dihydroindole-7-carboxamide] | < 6.00 | 5.83 | 6.92 |  | 5.73

The next lines start with the values.

pIC50 (AKT1 E17K) | pIC50 (AKT2) | pIC50 (AKT1 WT) | pIC50 ([1]; 72 h) | pIC50 ([1]; Homo sapiens, LAPC4, 72 h) | SMILES
6.76 | 6.45 | 7.36 |  | 6.61 | C=CC(=O)N1CCC(N[C@H]2CCc3cc(-n4c(-c5cccnc5N)nc5ccc(-c6cc7n(n6)CCOC7)nc54)ccc32)CC1 [Example 121, (S)-1-(4-((5-(2-(2-aminopyridin-3-yl)-5-(6,7-dihydro-4H-pyrazolo[5,1-c][1,4]oxazin-2-yl)-3H-imidazo[4,5-b]pyridin-3-yl)-2,3-dihydro-1H-inden-1-yl)amino)piperidin-1-yl)prop-2-en-1-one]
6.84 | 6.01 | 7.29 |  | 6.39 | C=CC(=O)N1CCC(N[C@H]2CCc3cc(-n4c(-c5cccnc5N)nc5ccc(-n6ccc(F)n6)nc54)ccc32)CC1 [Example 49, (S)-1-(4-((5-(2-(2-aminopyridin-3-yl)-5-(3-fluoro-1H-pyrazol-1-yl)-3H-imidazo[4,5-b]pyridin-3-yl)-2,3-dihydro-1H-inden-1-yl)amino)piperidin-1-yl)prop-2-en-1-one]
8.14 | 7.54 | 7.33 |  | 7.19 | C=CC(=O)N1CCC(N[C@H]2CCc3cc(-n4c(-c5cccnc5N)nc5ccc(-c6cnn(C(F)F)c6)nc54)ccc32)CC1 [Example 187, 1-(4-{[(1S)-5-[2-(2-aminopyridin-3-yl)-5-[1-(difluoromethyl)pyrazol-4-yl]imidazo[4,5-b]pyridin-3-yl]-2,3-dihydro-1H-inden-1-yl]amino}piperidin-1-yl)prop-2-en-1-one]
7.34 | 7.02 | 6.55 | 7.11 |  | C=CC(=O)N1CCC(N[C@H]2CC(O)c3cc(-n4c(-c5cccnc5N)nc5ccc(-n6cccn6)nc54)ccc32)CC1 (single isomer, unassigned) [Example 219, 1-(4-(((1S,3*)-5-(2-(2-aminopyridin-3-yl)-5-(1H-pyrazol-1-yl)-3H-imidazo[4,5-b]pyridin-3-yl)-3-hydroxy-2,3-dihydro-1H-inden-1-yl)amino)piperidin-1-yl)prop-2-en-1-one]
8.06 | 7.37 | 7.97 |  | 7.35 | CN(CC#N)C(=O)N1CCC(N[C@H]2CCc3cc(-n4c(-c5cccnc5N)nc5ccc(-n6cccn6)nc54)ccc32)CC1 [Example 128, 4-{[(1S)-5-[2-(2-aminopyridin-3-yl)-5-(pyrazol-1-yl)imidazo[4,5-b]pyridin-3-yl]-2,3-dihydro-1H-inden-1-yl]amino-N}-(cyanomethyl)-N-methylpiperidine-1-carboxamide]
7.28 | 6.85 | 6.44 | 6.65 |  | C=CC(=O)N1CCC(N[C@H]2CC(O)c3cc(-n4c(-c5cccnc5N)nc5ccc(-n6cccn6)nc54)ccc32)CC1 (single isomer, unassigned) [Example 218, 1-(4-(((1S,3*)-5-(2-(2-aminopyridin-3-yl)-5-(1H-pyrazol-1-yl)-3H-imidazo[4,5-b]pyridin-3-yl)-3-hydroxy-2,3-dihydro-1H-inden-1-yl)amino)piperidin-1-yl)prop-2-en-1-one]
8.15 | 7.45 | 7.31 |  | 6.94 | C=CC(=O)N1CCC(N[C@H]2CCc3cc(-n4c(-c5cccnc5N)nc5ccc(-c6ccccn6)nc54)ccc32)CC1 [Example 207, (S)-1-(4-((5-(2-(2-aminopyridin-3-yl)-5-(pyridin-2-yl)-3H-imidazo[4,5-b]pyridin-3-yl)-2,3-dihydro-1H-inden-1-yl)amino)piperidin-1-yl)prop-2-en-1-one]
7.17 | 6.10 | 6.22 |  | 5.62 | C=CC(=O)N1CCC(N[C@H]2CCc3cc(-n4c(-c5cccnc5N)nc5cc(C6CC6)cnc54)ccc32)CC1 [Example 199, 1-(4-{[(1S)-5-[2-(2-aminopyridin-3-yl)-6-cyclopropylimidazo[4,5-b]pyridin-3-yl]-2,3-dihydro-1H-inden-1-yl]amino}piperidin-1-yl)prop-2-en-1-one]
7.91 | 7.06 | 6.11 |  | 6.52 | C=CC(=O)N1CCC(N[C@@H]2c3ccc(-n4c(-c5cccnc5N)nc5ccc(-n6ccc(F)n6)nc54)cc3CC2F)CC1 (single isomer, unassigned) [Example 236, 1-(4-(((1R,2*)-5-(2-(2-aminopyridin-3-yl)-5-(3-fluoro-1H-pyrazol-1-yl)-3H-imidazo[4,5-b]pyridin-3-yl)-2-fluoro-2,3-dihydro-1H-inden-1-yl)amino)piperidin-1-yl)prop-2-en-1-one]
